Data from PubChem BioAssay AID330 (DTP/NCI, 2004).
Values joined by “and” are separate entries in the source; they are usually repeats but may differ in a detail not shown here. Identical values can stand only once. Toxic doses and inconclusive results are not listed. Rule for the calls: active = survival T/C of 150% or more; inactive = T/C below 125% in these data.

System: P388 leukemia ip, CD2F1 mice, survival T/C
Assay: NCI In Vivo Anticancer Drug Screen. Data for tumor model P388 Leukemia (intraperitoneal) in CD2F1 (CDF1) mice
Settings: endpoint: median survival time, higher = longer survival
Outline: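 Mice carrying the transplanted tumor received test compound or vehicle. Survival was recorded in each group, and the value is the treated-group measurement divided by that of the vehicle-treated control group.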

[1] = dose: 100.0 mg/kg/injection, schedule: Q01DX009 (ip), vehicle: Klucel (hydroxypropylcellulose) (HPC)
[2] = dose: 200.0 mg/kg/injection, schedule: Q01DX009 (ip), vehicle: Klucel (hydroxypropylcellulose) (HPC)
[3] = dose: 25.0 mg/kg/injection, schedule: Q01DX009 (ip), vehicle: saline with Tween-80
[4] = dose: 50.0 mg/kg/injection, schedule: Q01DX009 (ip), vehicle: saline with Tween-80
[5] = dose: 100.0 mg/kg/injection, schedule: Q01DX009 (ip), vehicle: saline with Tween-80
[6] = dose: 50.0 mg/kg/injection, schedule: Q01DX005 (ip), vehicle: saline with Tween-80
[7] = dose: 100.0 mg/kg/injection, schedule: Q01DX005 (ip), vehicle: saline with Tween-80
[8] = dose: 200.0 mg/kg/injection, schedule: Q01DX005 (ip), vehicle: saline with Tween-80
[9] = dose: 12.5 mg/kg/injection, schedule: Q01DX005 (ip), vehicle: saline with Tween-80
[10] = dose: 25.0 mg/kg/injection, schedule: Q01DX005 (ip), vehicle: saline with Tween-80
[11] = dose: 6.25 mg/kg/injection, schedule: Q01DX009 (ip), vehicle: saline
[12] = dose: 12.5 mg/kg/injection, schedule: Q01DX009 (ip), vehicle: saline
[13] = dose: 60.0 mg/kg/injection, schedule: Q01DX005 (ip), vehicle: saline with Tween-80
[14] = dose: 120.0 mg/kg/injection, schedule: Q01DX005 (ip), vehicle: saline with Tween-80
[15] = dose: 240.0 mg/kg/injection, schedule: Q01DX005 (ip), vehicle: saline with Tween-80
[16] = dose: 400.0 mg/kg/injection, schedule: Q01DX009 (ip), vehicle: saline with Tween-80
[17] = dose: 25.0 mg/kg/injection, schedule: Q01DX009 (ip), vehicle: saline

Measured: T/C

CCCCCCCCCCCCOCC[N+](CCO)(CCO)Cc1ccccc1
inactive: dose: 0.25 mg/kg/injection, schedule: Q01DX009 (ip), vehicle: saline 100 % of control | dose: 0.5 mg/kg/injection, schedule: Q01DX009 (ip), vehicle: saline 100 % of control | dose: 1.0 mg/kg/injection, schedule: Q01DX009 (ip), vehicle: saline 100 % of control

O=[N+]([O-])c1ccc(N2CC2)c2c1no[n+]2[O-]
inactive: dose: 7.5 mg/kg/injection, schedule: Q04DX003 (ip), vehicle: saline with Tween-80 101 % of control | dose: 15.0 mg/kg/injection, schedule: Q04DX003 (ip), vehicle: saline with Tween-80 99 % of control | dose: 30.0 mg/kg/injection, schedule: Q04DX003 (ip), vehicle: saline with Tween-80 100 % of control | dose: 60.0 mg/kg/injection, schedule: Q04DX003 (ip), vehicle: saline with Tween-80 100 % of control

CC(=O)C1C(=O)C(=O)N(c2cc(C)ccc2O)C1=O (stereo not given)
inactive: dose: 50.0 mg/kg/injection, schedule: Q01DX009 (ip), vehicle: Klucel (hydroxypropylcellulose) (HPC) 106 % of control | [1] 107 % of control | [2] 104 % of control

CCCOC(=O)c1nc(N(CC2CCCCC2)C(=O)NC)sc1/N=C/c1ccccc1
inactive: [3] 98 % of control | [4] 94 % of control | [5] 87 % of control

O=[N+]1C=CC=CC1=C1C=CC=CN1[O-]
inactive: [6] 104 % of control | [7] 110 % of control | [8] 103 % of control

COCCN1CC(=O)N2Cc3ccccc3CN2C(=O)C1
inactive: [9] 107 % of control | [10] 105 % of control | [6] 100 % of control and 101 % of control | [8] 101 % of control

S=P(Nc1ccccc1)(Nc1ccccc1)c1ccccc1
inactive: [1] 103 % of control | [2] 106 % of control | dose: 400.0 mg/kg/injection, schedule: Q01DX009 (ip), vehicle: Klucel (hydroxypropylcellulose) (HPC) 95 % of control

CC(C)CC1N=C(N(C)N=O)OP1(=O)NNc1ncccn1 (stereo not given)
inactive: dose: 60.0 mg/kg/injection, schedule: Q01DX005 (ip), vehicle: saline 97 % of control | dose: 120.0 mg/kg/injection, schedule: Q01DX005 (ip), vehicle: saline 102 % of control | dose: 240.0 mg/kg/injection, schedule: Q01DX005 (ip), vehicle: saline 99 % of control

Cc1cc(=O)oc2cc(OC(=O)Nc3ccc(Cl)c(Cl)c3)ccc12
inactive: dose: 3.12 mg/kg/injection, schedule: Q01DX009 (ip), vehicle: saline 101 % of control | [11] 100 % of control | [12] 101 % of control and 90 % of control

CCOC(=O)C1CCc2c(OC)c(C)cc(C)c2C1=O (stereo not given)
inactive: dose: 50.0 mg/kg/injection, schedule: Q01DX005 (ip), vehicle: Klucel (hydroxypropylcellulose) (HPC) 103 % of control | dose: 100.0 mg/kg/injection, schedule: Q01DX005 (ip), vehicle: Klucel (hydroxypropylcellulose) (HPC) 103 % of control | dose: 200.0 mg/kg/injection, schedule: Q01DX005 (ip), vehicle: Klucel (hydroxypropylcellulose) (HPC) 95 % of control

CC(=O)OC1CC2C(=S)Nc3cc4c(cc3C(=O)N2C1)OCO4 (stereo not given)
inactive: [6] 92 % of control | [7] 91 % of control | [8] 89 % of control

CC(C)c1cc(/C=C2/OC(=O)c3ccccc32)cc(C(C)C)c1O
inactive: dose: 100.0 mg/kg/injection, schedule: Q04DX002 (ip), vehicle: saline 101 % of control | dose: 200.0 mg/kg/injection, schedule: Q04DX002 (ip), vehicle: saline 100 % of control | dose: 400.0 mg/kg/injection, schedule: Q04DX002 (ip), vehicle: saline 106 % of control

Cc1cccc(Cl)c1NC(=O)NCCCN1CCOCC1
inactive: [13] 102 % of control | [14] 100 % of control | [15] 112 % of control

CCOC(=O)C1n2c(=O)n(-c3ccccc3)c(=O)n21
inactive: dose: 50.0 mg/kg/injection, schedule: Q01DX005 (ip), vehicle: Klucel + Tween-80 96 % of control | dose: 100.0 mg/kg/injection, schedule: Q01DX005 (ip), vehicle: Klucel + Tween-80 87 % of control | dose: 200.0 mg/kg/injection, schedule: Q01DX005 (ip), vehicle: Klucel + Tween-80 93 % of control

COc1cc(NCCCCCNC(C)(C)C)c2ncccc2c1
inactive: [9] 98 % of control | [10] 98 % of control | [6] 100 % of control and 103 % of control

COC12C=C(C(C)(C)C)C(CC1)C1C(=O)c3c(OC(=O)OCc4ccc([N+](=O)[O-])cc4)ccc(O)c3C(=O)C12 (stereo not given)
inactive: dose: 30.0 mg/kg/injection, schedule: Q01DX005 (ip), vehicle: saline with Tween-80 91 % of control | [13] 86 % of control and 94 % of control | [14] 91 % of control and 92 % of control | [15] 100 % of control

NC(=O)Cc1noc2ccccc12
inactive: [16] 106 % of control and 88 % of control

CCCCCCCCCCCCCCCc1nc(SCC(=O)OC)n[nH]1
inactive: [13] 99 % of control | [14] 99 % of control | [15] 98 % of control

N#C/C(C(=S)S)=C(/O)c1ccccc1
inactive: dose: 25.0 mg/kg/injection, schedule: Q01DX009 (ip), vehicle: saline sonified 104 % of control | dose: 50.0 mg/kg/injection, schedule: Q01DX009 (ip), vehicle: saline sonified 109 % of control | dose: 100.0 mg/kg/injection, schedule: Q01DX009 (ip), vehicle: saline sonified 100 % of control

CCC/C(C)=N/NC(=S)SC
inactive: [11] 100 % of control | [12] 98 % of control | [17] 98 % of control

CCn1c2ccc(C(=O)CCCN3CCCCC3)cc2c2cc(C(=O)CCCN3CCCCC3)ccc21
inactive: [11] 100 % of control | [12] 103 % of control and 113 % of control and 97 % of control | [17] 102 % of control and 121 % of control and 122 % of control

O=C1CCS(=O)(=O)CC1
inactive: [3] 108 % of control | [4] 103 % of control and 107 % of control | [5] 114 % of control and 120 % of control | dose: 200.0 mg/kg/injection, schedule: Q01DX009 (ip), vehicle: saline with Tween-80 107 % of control and 123 % of control | [16] 113 % of control and 120 % of control | dose: 600.0 mg/kg/injection, schedule: Q01DX009 (ip), vehicle: saline with Tween-80 123 % of control

C[CH2][Sn]([c]1ccccc1)([c]1ccccc1)[c]1ccccc1
inactive: dose: 12.5 mg/kg/injection, schedule: Q04DX003 (ip), vehicle: saline with Tween-80 95 % of control | dose: 25.0 mg/kg/injection, schedule: Q04DX003 (ip), vehicle: saline with Tween-80 100 % of control | dose: 50.0 mg/kg/injection, schedule: Q04DX003 (ip), vehicle: saline with Tween-80 100 % of control

C/C(=C\C1C/C(=C/CCc2ccoc2)C(=O)O1)CCCc1ccoc1 (stereo not given)
inactive: dose: 25.0 mg/kg/injection, schedule: Q01DX009 (ip), vehicle: saline + alcohol 100 % of control | dose: 50.0 mg/kg/injection, schedule: Q01DX009 (ip), vehicle: saline + alcohol 107 % of control
